Data reported in patent US9918975B2, “Method for improving dissolution of anticoagulant agent” (Daiichi Sankyo Company, Limited, priority 2010, dated 2018).

Assay: Solubility of compound I in aqueous solutions
Assay type: physicochemical

solubility (neutral aqueous solutions (e.g., a neutral buffer)): reduced solubility | solubility (strongly acidic aqueous solutions): favorable solubility
Structure (SMILES): CN1CCc2nc(C(=O)N[C@@H]3C[C@@H](C(=O)N(C)C)CC[C@@H]3NC(=O)C(=O)Nc3ccc(Cl)cn3)sc2C1 [compound I, N^1-(5-chloropyridin-2-yl)-N^2-((1S,2R,4S)-4-[(dimethylamino)carbonyl]-2-{[(5-methyl-4,5,6,7-tetrahydrothiazolo[5,4-c]pyridin-2-yl)carbonyl]amino}cyclohexyl)ethanediamide]
